How the values were obtained:
[1] = system: 8505C (Thyroid Gland Carcinoma); experiment: Bliss excess, mean over the matrix (fraction); higher = more synergy
Outline: (§1)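 Bliss excess equals the observed combination effect minus the expected value EA + EB − EA·EB, where EA and EB are the effects of each agent alone. Combination Emax is the second-highest inhibition within the matrix. Inhibition was scaled from CellTiter-Glo 2.0 luminescence, with 0 set by vehicle wells and 1 by blank wells, after 72 hours of two-drug dosing of cells plated in 1536-well plates.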

[2] = system: COR-L279 (Small Cell Lung Carcinoma); experiment: as above
Outline: as §1

[3] = system: ESO51 (Esophageal Adenocarcinoma); experiment: as above
Outline: as §1

G-361 (Melanoma) = experiment: as above
Outline: as §1

[4] = system: JHH-4 (Hepatocellular Carcinoma); experiment: as above
Outline: as §1

[5] = system: KMS-12-BM (Plasma Cell Myeloma); experiment: as above
Outline: as §1

[6] = system: KP-3 (Pancreatic Carcinoma); experiment: as above
Outline: as §1

[7] = system: KY821 (Acute Myeloid Leukemia); experiment: as above
Outline: as §1

M059J (Glioblastoma) = experiment: as above
Outline: as §1

[8] = system: MOLM-13 (Acute Myeloid Leukemia); experiment: as above
Outline: as §1

NCI-H2731 (Mesothelioma) = experiment: as above
Outline: as §1

[9] = system: NCI-H520 (Squamous Cell Lung Carcinoma); experiment: as above
Outline: as §1

[10] = system: NCI-H661 (Non-Small Cell Lung Carcinoma); experiment: as above
Outline: as §1

[11] = system: NCI-H929 (Plasma Cell Myeloma); experiment: as above
Outline: as §1

[12] = system: RPMI-8226 (Plasma Cell Myeloma); experiment: as above
Outline: as §1

SJSA-1 (Osteosarcoma) = experiment: as above
Outline: as §1

[13] = system: SNU-398 (Hepatocellular Carcinoma); experiment: as above
Outline: as §1

[14] = system: SU-DHL-5 (B-Cell Non-Hodgkin's Lymphoma); experiment: as above
Outline: as §1

[15] = system: T-T (Esophageal Squamous Cell Carcinoma); experiment: as above
Outline: as §1

[16] = system: ST486 (Burkitt's Lymphoma); experiment: combination Emax (second highest fraction inhibited in the dose matrix, 72 h); higher = more inhibition; extreme values may be limits of the assay
Outline: as §1

| Structure (SMILES) | Bliss excess [1] | Bliss excess [2] | Bliss excess [3] | Bliss excess (G-361 (Melanoma)) | Bliss excess [4] | Bliss excess [5] | Bliss excess [6] | Bliss excess [7] | Bliss excess (M059J (Glioblastoma)) | Bliss excess [8] | Bliss excess (NCI-H2731 (Mesothelioma)) | Bliss excess [9] | Bliss excess [10] | Bliss excess [11] | Bliss excess [12] | Bliss excess (SJSA-1 (Osteosarcoma)) | Bliss excess [13] | Bliss excess [14] | Bliss excess [15] | combination Emax [16] |
| --- | --- | --- | --- | --- | --- | --- | --- | --- | --- | --- | --- | --- | --- | --- | --- | --- | --- | --- | --- | --- |
| COc1nnc2ccc(N3CCC(c4ccc(OCCN5CCN(C)C(=O)[C@H]5C)cc4)CC3)nn12 [AZD5153] + Cc1c2c(nn1C)CSCc1cc(n(C)n1)CSc1cc(c3ccccc3c1)OCCCc1c(C(=O)O)n(C)c3c-2c(Cl)ccc13 [AZD5991] (first compound max 1 µM, 7x7, partner max 1 µM) | -0.0393 | 0.08 | -0.0093 | 0.0501 | 0.0096 | -0.0116 | -0.0446 | 0.0104 | -0.0072 | -0.0238 | -0.0327 | -0.0174 | 0.031 | -0.0142 | -0.0253 | -0.0673 | -0.0431 | -0.0264 | -0.0157 | 0.978 |
| COc1nnc2ccc(N3CCC(c4ccc(OCCN5CCN(C)C(=O)[C@H]5C)cc4)CC3)nn12 [AZD5153] + Cn1cnc2c(F)c(Nc3ccc(Br)cc3Cl)c(C(=O)NOCCO)cc21 [Selumetinib] (first compound max 1 µM, 7x7, partner max 10 µM) | 0.0049 | -0.0778 | -0.0408 | -0.107 | 0.0336 | -0.0114 | -0.0122 | 0.0027 | -0.0635 | 0.0238 | -0.0445 | 0.0319 | -0.0027 | -0.0068 | 0.0745 | -0.0377 | -0.0298 | 0.0756 | 0.0702 | 0.994 |
| Cc1c2c(nn1C)CSCc1cc(n(C)n1)CSc1cc(c3ccccc3c1)OCCCc1c(C(=O)O)n(C)c3c-2c(Cl)ccc13 [AZD5991] + C1CN(CCC1(C(=O)N[C@@H](CCO)C2=CC=C(C=C2)Cl)N)C3=NC=NC4=C3C=CN4 [Capivasertib] (first compound max 1 µM, 7x7, partner max 3 µM) | -0.0111 | 0.0417 | -0.0239 | -0.0055 | 0.0018 | 0.0127 | -0.0102 | -0.0471 | -0.101 | -0.002 | -0.0722 | -0.0548 | 0.0375 | -0.0168 | 0.0079 | -0.0248 | 0.034 | 0.0095 | -0.0068 | 0.829 |
| Cc1c2c(nn1C)CSCc1cc(n(C)n1)CSc1cc(c3ccccc3c1)OCCCc1c(C(=O)O)n(C)c3c-2c(Cl)ccc13 [AZD5991] + C=CCn1c(=O)c2cnc(Nc3ccc(N4CCN(C)CC4)cc3)nc2n1-c1cccc(C(C)(C)O)n1 [AZD1775] (first compound max 1 µM, partner max 1 µM) | 0.0256 | -0.0632 | 0.011 | 0.0513 | 0.0308 | -0.0082 | 0.0154 | -0.0329 | -0.0191 | -0.0021 | -0.0336 | 0.0221 | 0.0429 | 0.0023 | -0.0006 | 0.0115 | 0.0149 | 0.0028 | 0.0282 | 1 |
| Cc1c2c(nn1C)CSCc1cc(n(C)n1)CSc1cc(c3ccccc3c1)OCCCc1c(C(=O)O)n(C)c3c-2c(Cl)ccc13 [AZD5991] + CC1(C)CCC(CN2CCN(c3ccc(C(=O)NS(=O)(=O)c4ccc(NCC5CCOCC5)c([N+](=O)[O-])c4)c(Oc4cnc5[nH]ccc5c4)c3)CC2)=C(c2ccc(Cl)cc2)C1 [Venetoclax] (first compound max 1 µM, 7x7, partner max 1 µM) | -0.0253 | 0.0071 | -0.0008 | 0.008 | 0.0098 | 0.0301 | -0.0533 | 0.0331 | -0.0539 | 0.125 | -0.0519 | -0.0019 | 0.052 | -0.033 | 0.007 | -0.0941 | -0.0013 | -0.0379 | -0.0051 | 0.974 |
| Cc1c2c(nn1C)CSCc1cc(n(C)n1)CSc1cc(c3ccccc3c1)OCCCc1c(C(=O)O)n(C)c3c-2c(Cl)ccc13 [AZD5991] + CCN(CCO)CCCOc1ccc2c(Nc3cc(CC(=O)Nc4cccc(F)c4)[nH]n3)ncnc2c1 [AZD2811] (first compound max 1 µM, 7x7, partner max 1 µM) | 0.119 | 0.0162 | 0.0031 | 0.0481 | 0.0134 | 0.0257 | -0.0026 | 0.0053 | -0.0074 | 0.024 | -0.0023 | 0.0632 | 0.0328 | 0.0409 | 0.0744 | 0.0839 | 0.0359 | -0.06 | 0.0614 | 0.976 |
| Cc1c2c(nn1C)CSCc1cc(n(C)n1)CSc1cc(c3ccccc3c1)OCCCc1c(C(=O)O)n(C)c3c-2c(Cl)ccc13 [AZD5991] + CN(C)CCCOc1ccc(-c2ccc3ncc4c(c3c2)n(C2CCOCC2)c(=O)n4C)cn1 [AZD0156] (first compound max 1 µM, 7x7, partner max 1 µM) | -0.137 | -0.0051 | 0.0193 | 0.0371 | -0.0063 | -0.0445 | 0.0077 | -0.0327 | 0.006 | -0.0329 | -0.0444 | -0.0011 | -0.0054 | -0.0121 | 0.0147 | 0.0256 | -0.0018 | -0.0041 | -0.0025 | 0.805 |
| Cc1c2c(nn1C)CSCc1cc(n(C)n1)CSc1cc(c3ccccc3c1)OCCCc1c(C(=O)O)n(C)c3c-2c(Cl)ccc13 [AZD5991] + C[C@@H]1COCCN1C2=NC(=NC(=C2)C3(CC3)[S@](=N)(=O)C)C4=C5C=CNC5=NC=C4 [AZD6738] (first compound max 1 µM, 7x7, partner max 10 µM) | 0.0148 | -0.0057 | 0.0124 | 0.0356 | 0.0496 | -0.009 | 0.0405 | -0.0356 | -0.0165 | 0.0037 | -0.0074 | -0.0091 | 0.0528 | -0.0296 | 0.008 | 0.0711 | 0.0504 | -0.0059 | 0.0461 | 1 |
| Cc1c2c(nn1C)CSCc1cc(n(C)n1)CSc1cc(c3ccccc3c1)OCCCc1c(C(=O)O)n(C)c3c-2c(Cl)ccc13 [AZD5991] + C[C@@H](Nc1cc(F)cc(F)c1)c1cc(C(=O)N(C)C)cc2c(=O)cc(N3CCOCC3)oc12 [AZD8186] (first compound max 1 µM, 7x7, partner max 3 µM) | -0.0043 | -0.0011 | -0.0134 | -0.0082 | -0.0164 | 0.0019 | -0.0351 | 0.0034 | -0.0842 | -0.0351 | -0.0626 | -0.0474 | 0.0181 | -0.0218 | -0.0219 | -0.105 | -0.0004 | 0.0109 | 0.0265 | 0.829 |
| Cc1c2c(nn1C)CSCc1cc(n(C)n1)CSc1cc(c3ccccc3c1)OCCCc1c(C(=O)O)n(C)c3c-2c(Cl)ccc13 [AZD5991] + Cc1cc2ncnn2cc1Nc1ncc2c(n1)n(C1CCOCC1)c(=O)n2C [AZD7648] (first compound max 1 µM, 7x7, partner max 10 µM) | -0.0125 | 0.0671 | -0.0216 | 0.0031 | -0.0217 | -0.0033 | -0.0462 | -0.0302 | -0.0726 | -0.0165 | -0.0637 | -0.0453 | -0.0546 | 0.0091 | -0.0436 | 0.0585 | -0.0125 | -0.0377 | 0.007 | 0.841 |
| Cc1c2c(nn1C)CSCc1cc(n(C)n1)CSc1cc(c3ccccc3c1)OCCCc1c(C(=O)O)n(C)c3c-2c(Cl)ccc13 [AZD5991] + Cn1cnc2c(F)c(Nc3ccc(Br)cc3Cl)c(C(=O)NOCCO)cc21 [Selumetinib] (first compound max 1 µM, 7x7, partner max 3 µM) | 0.0319 | -0.0172 | 0.0896 | 0.0083 | 0.0244 | -0.0124 | -0.0378 | 0.0044 | -0.102 | 0.0409 | -0.0354 | -0.0116 | -0.0169 | 0.0275 | 0.0045 | -0.0733 | 0.0354 | 0.0221 | 0.0289 | 0.993 |
| C[C@@H]1COCCN1c1cc(C2([S@](C)(=N)=O)CC2)nc(-c2ccnc3[nH]ccc23)n1 [AZD6738] + O=C(c1cc(Cc2n[nH]c(=O)c3ccccc23)ccc1F)N1CCN(C(=O)C2CC2)CC1 [Olaparib] (first compound max 10 µM, 7x7, partner max 10 µM) | 0.0004 | 0.0042 | -0.102 | -0.0052 | -0.0325 | -0.0189 | 0.0143 | -0.0521 | 0.0113 | -0.0526 | -0.0266 | 0.044 | 0.039 | -0.0942 | -0.0189 | -0.0371 | 0.0108 | 0.002 | -0.0237 | 0.909 |
| Cc1cc2ncnn2cc1Nc1ncc2c(n1)n(C1CCOCC1)c(=O)n2C [AZD7648] + C=CCn1c(=O)c2cnc(Nc3ccc(N4CCN(C)CC4)cc3)nc2n1-c1cccc(C(C)(C)O)n1 [AZD1775] (first compound max 10 µM, partner max 1 µM) | -0.0235 | -0.0595 | -0.0433 | 0.0081 | 0.04 | 0.0085 | 0.0283 | -0.0098 | -0.0821 | -0.0255 | -0.0225 | 0.004 | -0.0135 | -0.0572 | 0.0062 | -0.024 | 0.0128 | 0.105 | 0.002 | 0.98 |
| Cc1cc2ncnn2cc1Nc1ncc2c(n1)n(C1CCOCC1)c(=O)n2C [AZD7648] + CCN(CCO)CCCOc1ccc2c(Nc3cc(CC(=O)Nc4cccc(F)c4)[nH]n3)ncnc2c1 [AZD2811] (first compound max 10 µM, 7x7, partner max 1 µM) | 0.0059 | -0.0803 | -0.0098 | 0.0453 | 0.0136 | 0.0266 | 0.0126 | 0.139 | -0.0551 | -0.0314 | -0.0077 | 0.0195 | 0.0564 | -0.0223 | 0.0363 | 0.0601 | 0.013 | -0.0094 | 0.0089 | 0.831 |

— the supplement of paper PMC11061612
